Consider 30 molecules from patent publication EP2524912A1, “Amine derivatives” (Bionomics Limited, priority 2011, dated 2012).

Chain of human Kv1.3 (P22001 whole entry): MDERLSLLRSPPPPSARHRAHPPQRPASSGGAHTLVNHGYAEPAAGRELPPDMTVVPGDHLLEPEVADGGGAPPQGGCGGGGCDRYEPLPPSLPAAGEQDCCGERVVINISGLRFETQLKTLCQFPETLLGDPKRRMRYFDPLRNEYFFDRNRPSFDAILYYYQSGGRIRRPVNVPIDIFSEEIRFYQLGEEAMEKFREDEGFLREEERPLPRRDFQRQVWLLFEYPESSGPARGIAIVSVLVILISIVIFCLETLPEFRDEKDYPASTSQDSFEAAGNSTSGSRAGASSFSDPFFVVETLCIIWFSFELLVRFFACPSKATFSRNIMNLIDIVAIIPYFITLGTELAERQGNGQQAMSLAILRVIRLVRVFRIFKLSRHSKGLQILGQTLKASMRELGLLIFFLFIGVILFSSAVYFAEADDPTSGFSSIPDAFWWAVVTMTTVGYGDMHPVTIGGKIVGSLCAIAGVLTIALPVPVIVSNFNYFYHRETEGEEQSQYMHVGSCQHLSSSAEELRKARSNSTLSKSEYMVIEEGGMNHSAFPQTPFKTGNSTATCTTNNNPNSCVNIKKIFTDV

The test addresses human Kv1.3 (Homo sapiens, UniProt P22001). The experiment in a line: Kv1.3 patch-clamp electrophysiology (planar electrode, whole-cell, steady state current). Format: cell-based. The conditions noted are these: CHO/Kv1.3 stable cell line; steady state current amplitude at end of 500 ms depolarising pulse to +40 mV; values given as ranges; read-out: IC50 (Kv1.3 ephys steady state). The protocol: The inhibition data shown for the compounds of the list below was calculated using the steady state current amplitude at the end of the depolarising pulse in patch clamp evaluations (as described in the Pharmacology Example 2).
The human Kv1.3 construct (Kv1.3/pENTR, clone IOH61428) was purchased from Invitrogen and subcloned into pcDNA 3.2-DEST (Invitrogen). CHO-K1 cells obtained from ATCC (cat #CCL-61) were transfected with the Kv1.3/pcDNA3.2DEST construct and a stable cell line was developed through two rounds of limiting dilution under G418 selection. Positive (Kv1.3 expressing) clones were identified using electrophysiology.
CHO/Kv1.x stable cell lines were grown in a humidified atmosphere at 37 °C, 5% CO2 in T-75 flasks containing F12 Kaighn's medium supplemented with 10% fetal calf serum, 2 mM L-glutamine, 100 units/ml penicillin, 100 µg/ml streptomycin and 500 µg/ml G418 (to maintain selection). CHO/Kv1.1 and CHO/Kv1.5 cells used for patching were transferred to 33 °C for 48 hours prior to use.
Kv1.x currents were measured using a planar electrode version (Nanion Technologies GMBH) of the patch-clamp technique. Whole-cell Kv1.x current transients were evoked by 500 ms depolarising voltage pulses to +40 mV from a holding potential of -80 mV applied at 10 s intervals for Kv1.1 and Kv1.5 and at 30 s intervals for Kv1.3 to allow adequate time for recovery from inactivation. Cells were continuously bathed in a buffered saline solution containing (mM): 160 NaCl, 4.5 KCI, 2 CaCl2, 1 MgCl2, 5 glucose, 10 HEPES, pH 7.4, 290-310 mOsm.Kg^-1. The internal (pipette) solution contained (mM): 10 NaCl, 70 KF, 75 KCI, 2 MgCl2, 10 HEPES, 10 EGTA, pH 7.2, 290-310 mOsm.Kg^-1. Series resistance compensation (60-80%) was applied when the peak current amplitude exceeded 2 nA.
Compounds were initially dissolved in DMSO to 10 mM. After further dilution in DMSO, compounds were finally diluted in bath solution 1/200 (to give a final DMSO concentration of 0.5%) and applied directly to the recording chamber. Compounds were added at increasing concentrations allowing ample time for steady state block to be achieved between each concentration. Each compound was tested at 5-6 different concentrations on 2-3 cells. IC50 values can be determined by fitting the average normalised reduction of either the current integral or the steady state current amplitude at the end of the depolarising pulse obtained at each compound concentration to the Hill equation. The IC50 data reported herein is based on the steady state calculation.
For orientation: In patch-clamp work, channel activity is measured electrically.
Usually IC50 stands for the concentration needed to halve the response being measured. As to `O=C(CCc1ccc(F)cc1)N(Cc1ccccn1)C(c1ccc(Cl)cc1)C1CC1` (stereo not drawn) [Example 9, N-[cyclopropyl(4-chlorophenyl)methyl]-3-(4-fluorophenyl)-N-(pyridin-2-ylmethyl)propanamide], the IC50 was in the range of 0.05 to 0.2 µM. `CC(CCN(C(=O)CN1CCCC(F)(F)C1)C(C)c1ccc2c(c1)CCC2)c1ccc(F)cc1` (stereo not drawn) [Example 69]: the IC50 is 0.05 to 0.2 µM. As for `CC(c1ccc2c(c1)CCC2)N(CCOc1ccccn1)C(=O)CCc1ccc(F)cc1` (stereo not drawn) [Example 47, N-[1-(2,3-dihydro-1H-inden-5-yl)ethyl]-3-(4-fluorophenyl)-N-[2-(pyridin-2-yloxy)ethyl]propanamide], the figure is 0.05 to 0.2 µM. Take `CC(c1ccc2c(c1)CCC2)N(Cc1ccccn1)C(=O)CCc1ccc(F)cc1` (stereo not drawn) [Example 67, N-[1-(2,3-dihydro-1H-inden-5-yl)ethyl]-3-(4-fluorophenyl)-N-(pyridin-2-ylmethyl)propanamide]: the IC50 lay in the range of 0.2 to 1 µM. As for `CCC(c1ccc2c(c1)CC(C)O2)N(Cc1ccccn1)C(=O)CCc1ccc(F)cc1` (stereo not drawn) [Example 24, 3-(4-fluorophenyl)-N-[1-(2-methyl-2,3-dihydro-1-benzofuran-5-yl)propyl]-N-(pyridin-2-ylmethyl)propanamide], the figure is 0.05 to 0.2 µM; as for `Cc1cccc(OCCN(C(=O)CC(C)c2ccc(F)cc2)C(C)c2ccc3c(c2)CCC3)n1` (stereo not drawn) [Example 52, N-[1-(2,3-dihydro-1H-inden-5-yl)ethyl]-3-(4-fluorophenyl)-N-[2-(6-methylpyridin-2-yloxv)ethyl]butanamide], 0.2 to 1 µM; as for `O=C(CS(=O)(=O)c1ccc(F)cc1)N(Cc1ccccn1)C(c1ccccc1)C1CC1` (stereo not drawn) [Example 15, N-[cyclopropyl(phenyl)methyl]-2-[(4-fluorophenyl)sulfonyl]-N-(pyridin-2-ylmethyl)acetamide], 0.2 to 1 µM. In the case of `CC(CC(=O)N(Cc1ccccn1)C(C)c1nncn1C)c1ccc(F)cc1` (stereo not drawn) [Example 78, 3-(4-fluorophenyl)-N-[1-(4-methyl-4H-1,2,4-triazol-3-yl)ethyl]-N-(pyridin-2-ylmethyl)butanamide], the IC50 fell in the range of 0.2 to 1 µM.

On to `CC(CC(=O)N(CCOc1cccc(Cl)n1)C(C)c1ccc2c(c1)CCC2)c1ccc(F)cc1` (stereo not drawn) [Example 44, N-[1-(2,3-dihydro-1H-inden-5-yl)ethyl]-3-(4-fluorophenyl)-N-[2-(6-chloropyridin-2-yloxy)ethyl]butanamide], for which the IC50 lay in the range of 0.2 to 1 µM. Take `CCC(CC)C(c1ccccc1)N(Cc1ccccn1)C(=O)CCc1ccc(F)cc1` (stereo not drawn) [Example 22, N-(2-ethyl-1-phenylbutyl)-3-(4-fluorophenyl)-N-(pyridin-2-ylmethyl)propanamide]: the IC50 is 0.2 to 1 µM. With `O=C(C1CC1c1ccc(F)cc1)N(Cc1ccccn1)C(c1ccc(Cl)cc1)C1CC1` (stereo not drawn) [Example 10, N-[(4-chlorophenyl)(cyclopropyl)methyl]-2-(4-fluorophenyl)-N-(pyridin-2-ylmethyl)cyclopropanecarboxamide] the figure was below 0.05 µM; with `CC(c1ccc2c(c1)SC(C)(C)O2)N(Cc1ccccn1)C(=O)CCc1cccc(C(F)(F)F)c1` (stereo not drawn) [Example 62, N-[1-(2,2-dimethyl-1,3-benzoxathiol-5-yl)ethyl]-N-(pyridin-2-ylmethyl)-3-[3-(trifluoromethyl)phenyl]propanamide], 0.2 to 1 µM; with `COCc1ccccc1C(C)N(Cc1ccccn1)C(=O)C1(S(=O)(=O)c2ccc(F)cc2)CC1` (stereo not drawn) [Example 66, 1-[(4-fluorophenyl)sulfonyl]-N-{1-[2-(methoxymethyl)phenyl]ethyl}-N-(pyridin-2-ylmethyl)cyclopropanecarboxamide], 0.05 to 0.2 µM. On to `CC(c1ccc2c(c1)CCC2)N(CCOc1ccccn1)C(=O)CCCc1ccccc1` (stereo not drawn) [Example 51, N-[1-(2,3-dihydro-1H-inden-5-yl)ethyl]-4-phenyl-N-[2-(pyridin-2-yloxy)ethyl]butanamide], for which the IC50 lay within 0.05 to 0.2 µM. In the case of `CC(CC(=O)N(Cc1ccccn1)C(c1ccc(Cl)cc1)C1CC1)S(=O)(=O)c1ccc(F)cc1` (stereo not drawn) [Example 76, N-[(4-chlorophenyl)(cyclopropyl)methyl]-3-[(4-fluorophenyl)sulfonyl]-N-(pyridin-2-ylmethyl)butanamide], the IC50 was 0.05 to 0.2 µM. Take `CC(c1ccc2c(c1)SC(C)(C)O2)N(Cc1ccccn1)C(=O)CCc1ccc(F)cc1` (stereo not drawn) [Example 54, N-[1-(2,2-dimethyl-1,3-benzoxathiol-5-yl)ethyl]-3-(4-fluorophenyl)-N-(pyridin-2-ylmethyl)propanamide]: the IC50 is 0.2 to 1 µM. With `CC(CCN(C(=O)CN1CCC(F)CC1)C(C)c1ccc2c(c1)CCC2)c1ccc(F)cc1` (stereo not drawn) [Example 70, N-[1-(2,3-dihydro-1H-inden-5-yl)ethyl]-N-[3-(4-fluorophenyl)butyl]-2-(4-fluoropiperidin-1-yl)acetamide], the IC50 fell in the range of 0.05 to 0.2 µM. With `CC(c1ccc2c(c1)[S+]([O-])C(C)(C)O2)N(Cc1ccccn1)C(=O)CCc1cccc(C(F)(F)F)c1` (stereo not drawn) [Example 63, N-[1-(2,2-dimethyl-3-oxido-1,3-benzoxathiol-5-yl)ethyl]-N-(pyridin-2-ylmethyl)-3-[3-(trifluoromethyl)phenyl]propanamide] the figure was above 1 µM; with `CC(c1ccc2c(c1)CCC2)N(CCOc1ccccn1)C(=O)C1(c2ccc(Cl)cc2)CCC1` (stereo not drawn) [Example 50, 1-(4-chlorophenyl)-N-[1-(2,3-dihydro-1H-inden-5-yl)ethyl]-N-[2-(pyridin-2-yloxy)ethyl]cyclobutanecarboxamide], 0.2 to 1 µM.

Regarding `COCc1ccccc1C(C)N(Cc1ccccn1)C(=O)CCc1ccc(F)cc1` (stereo not drawn) [Example 57, 3-(4-fluorophenyl)-N-{1-[2-(methoxymethyl)phenyl]ethyl}-N-(pyridin-2-ylmethyl)propanamide], the IC50 lay within 0.2 to 1 µM. With `COc1ccc(C(C2CC2)N(Cc2ccccn2)C(=O)CC(C)c2ccc(F)cc2)cc1` (stereo not drawn) [Example 1, N-[cyclopropyl(4-methoxyphenyl)methyl]-3-(4-fluorophenyl)-N-(pyridin-2-ylmethyl)butanamide] the figure was below 0.05 µM; with `COc1ccc(CN(C(=O)CCc2ccc(F)cc2)C(C)c2ccccc2)cn1` (stereo not drawn) [Example 43, 3-(4-fluorophenyl)-N-(1-phenylethyl)-N-(6-methoxypyridin-3-ylmethyl)propanamide], 0.2 to 1 µM. With `Cc1cnc(C)c(OCCN(C(=O)CC(C)c2ccc(F)cc2)C(C)c2ccc3c(c2)CCC3)n1` (stereo not drawn) [Example 41, N-[1-(2,3-dihydro-1H-inden-5-yl)ethyl]-3-(4-fluorophenyl)-N-[2-(3,6-dimethylpyrazin-2-yloxy)ethyl]butanamide] the figure was 0.05 to 0.2 µM. With `O=C(CCc1ccc(F)cc1)N(Cc1ccccn1)C(c1ccc(F)cc1)C1CCCC1` (stereo not drawn) [Example 21, N-[cyclopentyl(4-fluorophenyl)methyl]-3-(4-fluorophenyl)-N-(pyridin-2-ylmethyl)propanamide], the IC50 is 0.05 to 0.2 µM.

`COCc1ccccc1C(C)N(Cc1ccccn1)C(=O)CS(=O)(=O)c1ccc(F)cc1` (stereo not drawn) [Example 65, 2-[(4-fluorophenyl)sulfonyl]-N-{1-[2-(methoxymethyl)phenyl]ethyl}-N-(pyridin-2-ylmethyl)acetamide]: the IC50 was above 1 µM. Take `CC(c1ccccc1)N(Cc1ccccn1)C(=O)CCc1ccc(F)cc1` (stereo not drawn) [Example 42, 3-(4-fluorophenyl)-N-(1-phenylethyl)-N-(pyridin-2-ylmethyl)propanamide]: the half-maximal inhibitory concentration (IC50) lay within 0.2 to 1 µM. `CC(c1ccc2c(c1)CCC2)N(CCOc1cccc(Cl)n1)C(=O)CCc1ccc(F)cc1` (stereo not drawn) [Example 45, N-[1-(2,3-dihydro-1H-inden-5-yl)ethyl]-3-(4-fluorophenyl)-N-[2-(6-chloropyridin-2-yloxy)ethyl]propanamide]: the half-inhibitory concentration (IC50) is 0.2 to 1 µM. As for `O=C(CCc1ccc(F)cc1)N(Cc1ccccn1)C(c1ccccc1)C1CCCC1` (stereo not drawn) [Example 23, N-[cyclopentyl(phenyl)methyl]-3-(4-fluorophenyl)-N-(pyridin-2-ylmethyl)propanamide], the figure is 0.05 to 0.2 µM.

On to `CC(CCN(C(=O)c1cccnc1)C(C)c1ccc2c(c1)CCC2)c1ccc(F)cc1` (stereo not drawn) [Example 68, N-[1-(2,3-dihydro-1H-inden-5-yl)ethyl]-N-[3-(4-fluorophenyl)butyl]pyridine-3-carboxamide], for which the IC50 was in the range of 0.2 to 1 µM. For the molecule `COc1ccc(C(C2CC2)N(Cc2ccccn2)C(=O)CCc2ccc(F)cc2)cc1` (stereo not drawn) [Example 2, N-[cyclopropyl(4-methoxyphenyl)methyl]-3-(4-fluorophenyl)-N-(pyridin-2-ylmethyl)propanamide], the IC50 was 0.05 to 0.2 µM.
